Data: patent US20030109550A1, “Substituted indazole compounds for the treatment of inflammation” (priority 2001, published 2003)

Experiments:
[1] = molecular target: T1, IKK heterodimer (rhIKK1/IKK2 heterodimer) (Homo sapiens, UniProt O14920+O15111); experiment: IKK heterodimer Resin Enzyme Assay; type: biochemical; conditions: biotinylated IκBα peptide 5 μM, 1 μM ATP, 25° C., 30 min; read-out: HetD (IKK heterodimer Resin Enzyme Assay expressed as IC50)
T1 construct: made in house; host or cells: insect cells (baculovirus coinfection; SF9 cell paste)
T1 sequence (O15111 1-745): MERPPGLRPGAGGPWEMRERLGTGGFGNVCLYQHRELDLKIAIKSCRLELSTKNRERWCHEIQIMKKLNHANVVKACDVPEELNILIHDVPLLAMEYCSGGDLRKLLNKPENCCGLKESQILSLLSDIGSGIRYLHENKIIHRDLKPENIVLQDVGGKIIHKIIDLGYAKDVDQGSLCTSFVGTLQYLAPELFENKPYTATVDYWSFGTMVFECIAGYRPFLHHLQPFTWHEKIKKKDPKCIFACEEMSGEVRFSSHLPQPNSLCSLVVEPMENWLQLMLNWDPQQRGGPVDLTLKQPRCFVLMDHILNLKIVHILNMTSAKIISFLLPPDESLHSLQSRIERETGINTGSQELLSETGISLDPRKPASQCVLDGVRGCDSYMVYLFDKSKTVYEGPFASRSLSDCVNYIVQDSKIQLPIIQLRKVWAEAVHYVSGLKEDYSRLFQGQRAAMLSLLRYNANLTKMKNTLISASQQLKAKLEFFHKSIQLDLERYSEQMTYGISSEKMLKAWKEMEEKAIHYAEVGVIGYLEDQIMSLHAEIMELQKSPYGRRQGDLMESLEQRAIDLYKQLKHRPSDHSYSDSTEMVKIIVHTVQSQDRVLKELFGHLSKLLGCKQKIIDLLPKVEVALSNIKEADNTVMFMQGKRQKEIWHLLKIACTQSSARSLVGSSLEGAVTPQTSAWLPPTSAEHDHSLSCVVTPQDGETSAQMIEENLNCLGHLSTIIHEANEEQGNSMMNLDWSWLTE
T1 sequence (O14920 1-756): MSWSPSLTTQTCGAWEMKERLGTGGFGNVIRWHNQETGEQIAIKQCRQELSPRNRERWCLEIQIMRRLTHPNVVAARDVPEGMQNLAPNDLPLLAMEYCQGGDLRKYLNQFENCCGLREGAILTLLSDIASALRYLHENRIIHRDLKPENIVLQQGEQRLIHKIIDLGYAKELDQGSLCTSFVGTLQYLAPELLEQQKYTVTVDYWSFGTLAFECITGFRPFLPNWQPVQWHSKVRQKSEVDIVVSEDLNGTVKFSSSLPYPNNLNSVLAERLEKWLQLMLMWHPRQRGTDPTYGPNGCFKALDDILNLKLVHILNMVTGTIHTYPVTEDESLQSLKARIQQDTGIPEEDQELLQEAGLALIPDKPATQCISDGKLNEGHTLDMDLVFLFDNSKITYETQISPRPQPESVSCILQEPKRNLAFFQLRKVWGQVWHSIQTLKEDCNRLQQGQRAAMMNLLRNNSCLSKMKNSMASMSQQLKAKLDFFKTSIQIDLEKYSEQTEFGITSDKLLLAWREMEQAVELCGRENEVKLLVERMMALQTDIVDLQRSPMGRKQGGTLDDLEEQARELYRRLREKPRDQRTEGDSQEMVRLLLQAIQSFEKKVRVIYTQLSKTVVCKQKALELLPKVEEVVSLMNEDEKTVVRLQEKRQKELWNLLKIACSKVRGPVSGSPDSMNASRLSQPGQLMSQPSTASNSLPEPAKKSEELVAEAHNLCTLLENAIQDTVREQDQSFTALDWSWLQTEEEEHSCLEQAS
From the text: cDNAs of human IKK1 and IKK2 were amplified by reverse transcriptase-polymerase chain reaction from human placental RNA (Clonetech). hIKK1 was subcloned into pFastBac HTa (Life Technologies) and expressed as N-terminal His6-tagged fusion protein. The hIKK2 cDNA was amplified using a reverse oligonucleotide primer which incorporated the peptide sequence for a FLAG-epitope tag at the C-terminus of the IKK2 coding region (DYKDDDDKD). The hIKK2:FLAG cDNA was subcloned into the baculovirus vector pFastBac. The rhIKK2 ([…]) mutant was constructed in the same vector used for wild type rhIKK2 using a QuikChange™ mutagenesis kit (Stratagene) Viral stocks of each construct were used to infect insect cells grown in 40L suspension culture. […] Cell lysates were stored at −80° C. until purification of the recombinant proteins was undertaken as described in the succeeding sections.
Isolation of rhIKK1/IKK2 Heterodimer
The heterodimer enzyme was produced by coinfection in a baculovirus system (FLAG IKK2/IKK1 His; MOI=0.1 and I=72 hrs). Infected cells were centrifuged and the cell pellet (10.0 g) was suspended in 50 ml of buffer A. The protein suspension was microfluidized and centrifuged at 100,000×g for 45 min. Imidazole was added to the supernatant to a final concentration of 10 mM. The protein was allowed to bind 25 ml of Ni-NTA resin by mixing for 2 hrs. The protein-resin slurry was poured into a 25 ml column and washed with 250 ml of buffer A containing 10 mM imidazole followed by 125 ml of buffer A containing 50 mM imidazole. Buffer A, containing 300 mM imidazole, was then used to elute the protein. A 75 ml pool was collected and NP-40 was added to a final concentration of 0.1%. The protein solution was then dialyzed against buffer B. The dialyzed heterodimer enzyme was then allowed to bind to 25 ml of anti-FLAG M2 agarose affinity gel overnight with constant mixing. The protein-resin slurry was then centrifuged for 5 min at 2,000 rpm. The supernatant was collected and the resin re-suspended in 100 ml of buffer C containing 0.1% NP-40. The resin was washed with 375 ml of buffer C containing 0.1% NP-40. The protein-resin was poured into a 25 ml column and the enzyme eluted using buffer B containing FLAG peptide. Enzyme fractions (100 ml) were collected and concentrated to 20 ml using an Amicon membrane with molecular weight cut-off of 30 kDa. Bovine serum albumin was added to the concentrated enzyme to final concentration of 0.1%. The enzyme was then aliquoted and stored at −80° C.
IKK heterodimer Resin Enzyme Assay
IKK heterodimer kinase activity was measured using a biotinylated IκBα peptide (Gly-Leu-Lys-Lys-Glu-Arg-Leu-Leu-Asp-Asp-Arg-His-Asp-Ser32-Gly-Leu-Asp-Ser36-Met-Lys-Asp-Glu-Glu) (American Peptide Co.). […] ATP was measured using a Top-Count NXT (Packard).

SMILES | melting point | IC50 [1]
Cc1ccc2c(C(N)=O)nn(-c3ccc(S(N)(=O)=O)cc3)c2c1 [Example 9, 1-[4-(aminosufony)phenyl]-6-methyl-1H-indazole-3-carboxamide] | 251 to 252 °C | –
NC(=O)c1nn(-c2ccc(S(N)(=O)=O)cc2)c2cc(-c3ccc(F)cc3)ccc12 [Example 2, 1-[4-(aminosulfonyl)phenyl]-6-(4-fluorophenyl)-1H-indazole-3-carboxamide] | 314 to 315 °C | –
CCOc1ccc2c(C(N)=O)nn(-c3ccc(S(N)(=O)=O)cc3)c2c1 [Example 13, 1-[4-(aminosulfonyl)phenyl]-6-ethoxy-1H-indazole-3-carboxamide] | 213 to 214 °C | –
NC(=O)c1nn(-c2ccc(S(N)(=O)=O)cc2)c2cc(-c3ccccc3)ccc12 [Example 10, 1-[4-(aminosulfonyl)phenyl]-6-phenyl-1H-indazole-3-carboxamide] | 232 to 234 °C | –
NC(=O)c1nn(-c2ccc(S(N)(=O)=O)cc2)c2cc(-c3cccnc3)ccc12 [Example 15, 1-[4-(aminosulfonyl)phenyl]-6-pyridin-3-yl-1H-indazole-3-carboxamide] | 310 to 313 °C | –
CC(C)(C)c1ccc(-c2ccc3c(C(N)=O)nn(-c4ccc(S(N)(=O)=O)cc4)c3c2)cc1 [Example 4, 1-[4-(aminosulfonyl)phenyl]-6-(4-tert-butylphenyl)-1H-indazole-3-carboxamide] | 262 to 263 °C | > 100 µM
COc1ccc(-c2ccc3c(C(N)=O)nn(-c4ccc(S(N)(=O)=O)cc4)c3c2)cc1 [Example 1, 1-[4-(aminosulfonyl)phenyl]-6-(4-methoxyphenyl)-1H-indazole-3-carboxamide] | 258 to 259 °C | > 100 µM
CNc1cccc(-c2ccc3c(C(N)=O)nn(-c4ccc(S(N)(=O)=O)cc4)c3c2)c1 [Example 7, 1-[4-(aminosulfonyl)phenyl]-6-[3-(methylamino)phenyl]-1H-indazole-3-carboxamide] | 159 to 160 °C | –
Cc1cccc(-c2ccc3c(C(N)=O)nn(-c4ccc(S(N)(=O)=O)cc4)c3c2)c1 [Example 3, 1-[4-(aminosulfonyl)phenyl]-6-(3-methylphenyl)-1H-indazole-3-carboxamide] | 261 to 263 °C | –
COc1cccc(-c2ccc3c(C(N)=O)nn(-c4ccc(S(N)(=O)=O)cc4)c3c2)c1 [Example 11, 1-[4-(aminosulfonyl)phenyl]-6-(3-methoxyphenyl)-1H-indazole-3-carboxamide] | 229 to 230 °C | 1 µM
NC(=O)c1nn(-c2ccc(S(N)(=O)=O)cc2)c2cc(Cc3ccccc3)ccc12 [Example 12, 1-[4-(aminosulfonyl)phenyl]-6-benzyl-1H-indazole-3-carboxamide] | 207 to 209 °C | –
NC(=O)c1nn(-c2ccc(S(N)(=O)=O)cc2)c2ccncc12 [Example 8, 1-[4-(aminosulfonyl)phenyl]-1H-pyrazolo[4,3-c]pyridine-3-carboxamide] | 301 to 302 °C | –
CCc1ccc2c(C(N)=O)nn(-c3ccc(S(N)(=O)=O)cc3)c2c1 [Example 14, 1-[4-(aminosulfonyl)phenyl]-6-ethyl-1H-indazole-3-carboxamide] | 249 to 251 °C | –
CN(C)c1cccc(-c2ccc3c(C(N)=O)nn(-c4ccc(S(N)(=O)=O)cc4)c3c2)c1 [Example 6, 1-[4-(aminosulfonyl)phenyl]-6-[3-(dimethylamino)phenyl]-1H-indazole-3-carboxamide] | 237 to 238 °C | > 100 µM
Cc1cc(-c2ccc3c(C(N)=O)nn(-c4ccc(S(N)(=O)=O)cc4)c3c2)ccc1F [Example 5, 1-[4-(aminosulfonyl)phenyl]-6-(4-fluoro-3-methylphenyl)-1H-indazole-3-carboxamide] | 300 to 302 °C | –
